Test [1] concerns MRSA clinical isolate No. 11. Briefly: MIC, broth microdilution (Example 2, Table 6). It is filed as cell-based, Staphylococcus aureus. (Dilution methods test growth across graded concentrations, often in twofold steps.)
The subject of test [2] is MRSA clinical isolate No. 9. Briefly: MIC, broth microdilution (Example 2, Table 6). It is filed as cell-based, Staphylococcus aureus.
For test [3], the system named is MRSA clinical isolate No. 12. Briefly: MIC, broth microdilution (Example 2, Table 6). It is filed as cell-based, Staphylococcus aureus.
Test [4] deals with MRSA clinical isolate No. 8. Briefly: MIC, broth microdilution (Example 2, Table 6). It is filed as cell-based, Staphylococcus aureus.
Test [5] relates to MSSA clinical isolate No. 1. Briefly: MIC, broth microdilution (Example 2, Table 6). It is filed as cell-based, Staphylococcus aureus.
In test [6] the test system is S. aureus NCTC8325 (MSSA). Briefly: MIC, broth microdilution (Example 2, Table 6). It is filed as cell-based, Staphylococcus aureus. The procedure: (§1) Methicillin-susceptible Staphylococcus aureus (MSSA) NCTC8325 and methicillin-resistant Staphylococcus aureus (MRSA) ATCC43300 were used as bacteria. The bacteria of each type were cultured using Mueller-Hinton Broth (MH-broth, Difco) as a medium. Then, the minimum inhibitory concentration (MIC) of each of the EGCG derivatives was measured by a broth microdilution method in accordance with the Clinical and Laboratory Standards Institute (CLSI) guidelines (hereinafter the same).
(§2) First, each of the EGCG derivatives was dissolved in 100% dimethyl sulfoxide (DMSO, Wako Pure Chemical Industries, Ltd.) so that the concentration thereof became 5120 μg/ml. The resultant solution was diluted with DMSO or sterile distilled water so as to prepare two-fold dilution series of antibacterial agent solutions. […] Each of these antibacterial agent solutions was dispensed to wells of a 96-well plate. The concentration of the EGCG derivative in the antibacterial agent solution dispensed to the wells was set to be 10 times as high as the final concentration. On the other hand, the bacteria were cultured in the MH-broth at 37° C. overnight, and the thus-obtained pre-culture solution was diluted with a new MH-broth so that the concentration thereof in the MH-broth became 10^−4 (10^4-fold dilution), thus preparing a bacterial culture solution of about 1×10^5 CFU/ml (CFU: Colony Forming Unit, the number of viable cells). The bacterial culture solution was further added to each well, and the mixture was cultured at 37° C. for 18 hours. The ratio (volume ratio) between the antibacterial agent solution and the bacterial culture solution added to each well was set to 1:9 (the antibacterial agent solution:the bacterial culture solution), and the volume of the mixture of them per well was set to 100 μl in total. The final concentration of the EGCG derivative in the mixture was set to 8 μg/ml to 512 μg/ml, and the number of viable cells in the mixture was set to about 1×10^5 CFU/ml. Then, after the completion of the culture, the MIC was determined. Also, the turbidity (OD600 nm) was measured using a plate reader so as to identify minor differences.
(§3) Each of the EGCG derivatives was dissolved in 100% DMSO so that the concentration thereof became 1280 μg/ml. The thus-obtained solutions were diluted with sterile distilled water, thus preparing antibacterial agent solutions.
(§4) As Comparative Example 2, the same procedures as in Example 2 were performed, except that unsubstituted EGCG was used as an antibacterial agent instead of the EGCG derivatives of Example 2. Furthermore, as a control, the same procedures as in Example 2 were performed, except that sterile distilled water was used instead of the antibacterial agent solutions containing the EGCG derivatives.

The next test relates to MRSA ATCC43300. Briefly: MIC, broth microdilution (Example 2, Table 6). It is filed as cell-based, Staphylococcus aureus. How it is done:
as §1, §2, §3, §4

The test system of the next test is MSSA ATCC25923. Briefly: MIC, broth microdilution (Example 2, Table 6). It is filed as cell-based, Staphylococcus aureus.
Test [7] deals with MSSA clinical isolate No. 4. Put plainly: MIC, broth microdilution (Example 2, Table 6). It is filed as cell-based, Staphylococcus aureus.
Test [8] relates to MSSA clinical isolate No. 2. Put plainly: MIC, broth microdilution (Example 2, Table 6). It is filed as cell-based, Staphylococcus aureus.
A further test deals with MSSA ATCC12600. Briefly: MIC, broth microdilution (Example 2, Table 6). It is filed as cell-based, Staphylococcus aureus.
In test [9] the test system is MSSA clinical isolate No. 5. Put plainly: MIC, broth microdilution (Example 2, Table 6). It is filed as cell-based, Staphylococcus aureus.
Test [10] relates to MSSA clinical isolate No. 3. Briefly: MIC, broth microdilution (Example 2, Table 6). It is filed as cell-based, Staphylococcus aureus.
The subject of test [11] is MRSA clinical isolate No. 7. Briefly: MIC, broth microdilution (Example 2, Table 6). It is filed as cell-based, Staphylococcus aureus.
Another test concerns MSSA ATCC29213. Put plainly: MIC, broth microdilution (Example 2, Table 6). It is filed as cell-based, Staphylococcus aureus.
The test system of test [12] is Candida tropicalis ATCC750. Put plainly: MIC with respect to fungi, broth microdilution (Table 8). It is filed as cell-based. The conditions noted are these: RPMI1640/MOPS (pH 7.0), 35° C., 24 to 48 hours. How it is done:
(§5) Regarding the respective type strains shown in Tables 7 and 8 below, the MIC measurement was performed using the antibacterial agent solutions of Example 2 in the same manner as described in Section (2) of Example 1, except for the following. The antibacterial agent solutions were prepared by dissolving the EGCG derivatives of Example 2 in 100% DMSO and then diluting the resultant mixtures with sterile distilled water. The respective strains were derived from ATCC or NCTC. As Moraxella catarrhalis and Aspergillus fumigatus, clinical isolates thereof without an acquired resistance mechanism were used. For nutrient-rich bacteria, namely, Streptococcus pneumoniae ATCC49619, Streptococcus pyogenes ATCC19615, Streptococcus agalactiae ATCC13813, Moraxella catarrhalis, and Haemophilis influenzae ATCC49766, Strepto Haemo supplement (Eiken Chemical Co., Ltd.) was added to media for culturing them. The MIC measurement with respect to fungi was carried out by a broth microdilution method using a RPMI1640/MOPS (pH 7.0) medium in accordance with CLSI guidelines. About 2×10^3 cells/ml of fungi were inoculated to the medium. After the culture at 35° C. for 24 to 48 hours, the MIC was determined. Also, regarding the antibacterial agent solution of Comparative Example 2, the MIC was measured in the same manner.

In test [13] the test system is Candida parapsilosis ATCC22019. Described as above. As to conditions: RPMI1640/MOPS (pH 7.0), 35° C., 24 to 48 hours. It is filed as cell-based. The procedure: as §5
Another test relates to Candida krusei ATCC6258. Described as above. It is filed as cell-based. The conditions noted are these: RPMI1640/MOPS (pH 7.0), 35° C., 24 to 48 hours. How it is done:
as §5

The subject of test [14] is Candida albicans ATCC24433. The test is described as above. It is filed as cell-based. The conditions noted are these: RPMI1640/MOPS (pH 7.0), 35° C., 24 to 48 hours. The procedure: as §5
For test [15], the system named is Candida glabrata ATCC90030. The test is described as above. It is filed as cell-based. As to conditions: RPMI1640/MOPS (pH 7.0), 35° C., 24 to 48 hours. How it is done: as §5
The test system of test [16] is Cryptococcus neoformans ATCC90112. The test is described as above. It is filed as cell-based. The conditions noted are these: RPMI1640/MOPS (pH 7.0), 35° C., 24 to 48 hours. How it is done: as §5
For a further test, the system named is Aspergillus fumigatus. The test is described as above. It is filed as cell-based. As to conditions: Aspergillus fumigatus clinical isolate; RPMI1640/MOPS (pH 7.0), 35° C., 24 to 48 hours. How it is done: as §5

Usually MIC stands for the lowest concentration found to suppress growth.

For the substance EGCG-palmitoleate [EGCG-C16E], the MIC in test [1] was 64 µg/mL; in test [2], 64 µg/mL; in test [3], 16 µg/mL; in test [4], 8 µg/mL; in test [5], 16 µg/mL; in test [6], 16 µg/mL. In addition, the MIC worked out at 16 µg/mL against MRSA ATCC43300; 32 µg/mL against MSSA ATCC25923; 16 µg/mL in [7]; 16 µg/mL in test [8]; 16 µg/mL against MSSA ATCC12600; 16 µg/mL in test [9]. The MIC (in [10]; in test [11]; in the test with MSSA ATCC29213; in [12]; in test [13]; in the test with Candida krusei ATCC6258) was 16 µg/mL each time. The minimum inhibitory concentration (MIC) in test [14] came out at 16 µg/mL; in test [15] it was 16 µg/mL; in test [16] it was 8 µg/mL; against Aspergillus fumigatus it was 16 µg/mL.
Regarding EGCG-dioctanoate [EGCG-C8×2], the MIC in [1] stood at 32 µg/mL; in test [2] it was 16 µg/mL; in test [3], 16 µg/mL; in test [4], 4 µg/mL; in test [5], 16 µg/mL; in test [6] it was 4 µg/mL. The MIC in the test with MRSA ATCC43300 is 16 µg/mL; with MSSA ATCC25923, 16 µg/mL; in test [7] it was 16 µg/mL; in [8] it was 16 µg/mL; in the test on MSSA ATCC12600, 8 µg/mL; in [9] it was 16 µg/mL. In addition, the MIC amounted to 16 µg/mL in test [10]; 16 µg/mL in test [11]; 16 µg/mL against MSSA ATCC29213; 32 µg/mL in test [12]; 16 µg/mL in test [13]; 16 µg/mL in the test on Candida krusei ATCC6258. In addition, the MIC in [14] was found to be 32 µg/mL; in [15], 16 µg/mL; in [16], 16 µg/mL; against Aspergillus fumigatus it was 32 µg/mL.
Regarding EGCG-stearate [EGCG-C18], the MIC in test [1] was found to be 64 µg/mL; in test [3] it was 64 µg/mL; in test [4] it was 16 µg/mL; in [5], 32 µg/mL; in test [6], 16 µg/mL; against MRSA ATCC43300, 32 µg/mL. The MIC (against MSSA ATCC25923; in test [7]; in test [8]; against MSSA ATCC12600; in [9]; in test [10]) was 32 µg/mL in each case. Besides, the minimum inhibitory concentration (MIC) was 32 µg/mL in [11]; 32 µg/mL against MSSA ATCC29213; 32 µg/mL in [12]; 16 µg/mL in test [13]; 16 µg/mL with Candida krusei ATCC6258; 16 µg/mL in test [14]. The MIC came out at 16 µg/mL in test [15], 16 µg/mL in [16] and 32 µg/mL in the test on Aspergillus fumigatus.
Take EGCG-α-linoleate [EGCG-C18TE]: the MIC in [1] was 64 µg/mL; in [2] it was 64 µg/mL; in test [3], 16 µg/mL; in [4] it was 8 µg/mL; in [5], 16 µg/mL; in test [6] it was 4 µg/mL. For the same substance, the MIC in the test with MRSA ATCC43300 is 16 µg/mL; in the test on MSSA ATCC25923 it was 32 µg/mL; in test [7] it was 16 µg/mL; in [8] it was 16 µg/mL; against MSSA ATCC12600, 16 µg/mL; in [9] it was 16 µg/mL. Also, the MIC (in [10]; in test [11]; in the test on MSSA ATCC29213; in test [12]; in test [13]; against Candida krusei ATCC6258) was 16 µg/mL in each case. Further, the MIC in test [14] turned out to be 16 µg/mL; in [16], 8 µg/mL; against Aspergillus fumigatus, 16 µg/mL.
For the substance EGCG-linolate [EGCG-C18DE], the MIC in [1] was 32 µg/mL; in [2] it was 64 µg/mL; in [3] it was 16 µg/mL; in test [4], 8 µg/mL; in test [5] it was 16 µg/mL; in test [6] it was 16 µg/mL. Besides, the MIC with MRSA ATCC43300 amounted to 16 µg/mL; against MSSA ATCC25923, 32 µg/mL; in [7] it was 16 µg/mL; in test [8] it was 16 µg/mL; against MSSA ATCC12600, 16 µg/mL; in test [9], 16 µg/mL. For the same substance, the MIC in test [10] came to 16 µg/mL; in test [11], 16 µg/mL; against MSSA ATCC29213, 16 µg/mL; in test [12] it was 32 µg/mL; in test [13] it was 16 µg/mL; with Candida krusei ATCC6258 it was 16 µg/mL. Also, the MIC in test [14] was determined as 16 µg/mL; in test [16] it was 8 µg/mL; in the test with Aspergillus fumigatus, 32 µg/mL.

For the origin of these results see patent publication US9801850B2, “Antibacterial agent” (OSAKA UNIVERSITY, priority 2009, dated 2017).
